Experimental data reported in PMC3375010, “The TRPV5/6 calcium channels contain multiple calmodulin binding sites with differential binding properties” (Journal of Structural and Functional Genomics, 2012).
Entries after “also recorded” stand apart in the source; their conditions may differ. One block for each substance: values may come before it.

What was measured:
CaM (calmodulin) [1] = target: T1, CaM (calmodulin) (Xenopus laevis, UniProt P0DP33); test: 15N-1H-HSQC NMR titration of 15N-labelled CaM with peptide (with 1D 15N-filtered NMR); assay type: binding, Xenopus laevis (identical to mammalian); conditions: 35°C; for CaM binding affinity (words, from NMR): 1:0–1:3; for NMR exchange regime of CaM-peptide complex: 15N-1H-HSQC, V5p4, V5p5: CaM buffer pH 7.0, V5p2, V5p2n: H2O with 10 mM 2-mercaptoethanol; for CaM domains involved in binding (overall): V6p1: first and second event, pH 7.0, V5p3: 1:1, pH 5.0; for CaM NMR line broadening: CaM:peptide 1:1.5 molar ratio, H2O with 10 mM 2-mercaptoethanol
T1 construct: made in house; host or cells: E. coli AR58 (pTNcoI2 plasmid)
Protocol: (§1) For the titration by synthetic peptides, ^15N-labeled CaM samples with concentration 0.3–0.7 mM were used. CaM and peptides were dissolved in either KCl 50 mM, CaCl2 10 mM, Tris 20 mM pH 7.0 (V5p1s, V6p1, V5p4, V5p5), or 10 mM CaCl2, 10 mM ammonium acetate buffer pH 5.0 (V5p3 and V6p3), or MilliQ water with 10 mM 2-mercaptoethanol (V5p2 and V5p2n).
(§2) The binding of target peptides to CaM was monitored by 2D ^15N-^1H-HSQC spectra. The combination of 1D ^15N-filtered and 1D ^15N-^1H-HSQC experiments was used to assess the ratio of bound and non-bound peptides. ^15N-T1rho experiments were used to estimate the transverse relaxation rates of the CaM resonances during the titration. For sequential assignment of CaM 3D HNCACB and CBCA(CO)NH experiments were performed.
All spectra were recorded at 308 K on Varian Inova 800 MHz or Bruker Avance III 600 MHz spectrometers, each equipped with a cryogenic probe.
All NMR spectra were processed using the NMRpipe suite and analyzed by the program CcpNmr Analysis.

CaM (calmodulin) [2] = target: T1, CaM (calmodulin); test: Tryptophan fluorescence of the peptide upon titration by CaM; assay type: binding, Xenopus laevis (identical to mammalian); conditions: room temperature; for shift of emission maximum upon CaM addition: emission 295–405 nm, peptide:CaM 1:0–1:2; for emission maximum without CaM (start of shift): V6p1 W695: CaM buffer pH 7.0, V5p2 W593: H2O with 2-mercaptoethanol pH 7.0 (Table 1), before CaM addition; for emission maximum: V5p2, W593
Protocol: Fluorescence measurements were performed using a Varian Cary Eclipse fluorescence spectrophotometer (Agilent Technologies, USA), with emission and excitation slit width set to 5 nm. Tryptophan excitation wavelength was set to 282 nm and emission spectra were recorded in the range 295–405 nm. Each spectrum was recorded three times and averaged. Fluorescence intensity contribution from CaM and background intensity from buffer and cuvettes were subtracted for each spectrum. The recorded emission intensities were corrected for dilution effects. All measurements were carried out at room temperature. CaM and peptides stocks were prepared in 50 mM KCl, 10 mM CaCl2 20 mM Tris pH 7.0 buffer. […] For each titration point, the samples were kept at room temperature for 30 min prior to measurements to ensure that the equilibrium was reached.

[3] = Peptide solubility / aggregation; assay type: physicochemical; conditions: for solubility: V5p2: at concentrations desired for NMR, V5p3, V6p3: 10 mM CaCl2, 10 mM ammonium acetate pH 5.0; for aggregation / precipitation: aqueous buffer versus water, 2-mercaptoethanol 10 mM tested
Protocol: as §1
^15N-^1H-HSQC spectra of the complexes of CaM with V5p2 at molar ratios 1:0 (black), 1:0.75 (red) and 1:1.5 (blue) are presented in Fig. 5a.
The binding patterns observed for CaM in the two complexes were also very similar (supplementary Fig. 4sC). Low pH (5.0) might influence CaM-peptide interactions but we have not studied the effect of pH in details. As both peptides contain neither tryptophan, nor tyrosine residues, fluorescence measurements were not possible using the native peptides.

[4] = target: Calmodulin (Homo sapiens) (UniProt P0DP23); test: fluorescence anisotropy; conditions: cited from earlier work
CaM (calmodulin) [5] = target: T1, CaM (calmodulin); test: Isothermal titration calorimetry of CaM with peptide; assay type: binding, Xenopus laevis (identical to mammalian); conditions: for K2 (macroscopic binding constant, second event) / K1 (macroscopic binding constant, first event): CaM 15–20 μM in cell; for K1 (macroscopic binding constant, first event): measured at least three times; for ΔS1 / ΔS2: pH 7.0
Description: Peptides corresponding to the amino acid residues 133–154, 310–330, 401–428, 591–612, 696–712 and 696–729 of human TRPV5 and 401–428 and 690–716 of human TRPV6 (cf. Table 1) were purchased from Peptides & elephants GmbH (Potsdam, Germany) and GenicBio Limited (Shanghai, China). All peptides were purified by HPLC (>95% purity) and analyzed by mass-spectrometry. Prior to all experiments, to remove residual TFA, the peptides were dialyzed against an appropriate buffer (dialysis tubing Spectra/Por® 7 with 1 K MWCO; Spectrum Labs, USA).
Expression was induced by a temperature shift from 30 to 42°C and 3–4 h after induction cells were harvested and lysed. Calmodulin was purified by weak anion exchange (DEAE, GE Lifesciences) and affinity chromatography (Phenylsepharose, GE Lifesciences). Purified protein was dialyzed against 1/100 of KCl 50 mM, CaCl2 10 mM, Tris 20 mM pH 7.0, freeze-dried and stored at −20°C. Unless specified differently, all chemicals were obtained from Sigma-Aldrich, USA). Uniformly ^13C and/or ^15N-labelled samples were produced by growing the cells in M9 minimal medium containing 4 g/L ^13C6-glucose and/or 1 g/L ^15N-ammonium chloride (Buchem BV, Apeldoorn, The Netherlands) as the sole source of carbon and/or nitrogen, respectively.
ITC samples were prepared by dissolving CaM and peptides in 50 mM KCl, 10 mM CaCl2, 20 mM Tris pH 7.0 buffer. The concentration of CaM in the cell was 15–20 μM, the concentration of peptides in the syringe exceeded the CaM concentration by 15–20 times. Protein concentrations were determined using a Nanodrop spectrophotometer ND-1000 (Isogen Life Science). ITC experiments were carried out using an ITC200 device (MicroCal Inc., Northampton, MA, USA). After thermal equilibration at 298 K, thirty-nine 1 μl serial injections were performed at 500 rpm stirring speed with an injection spacing of 4 min. To correct the experimental binding isotherm for background heat effects, we also titrated peptide into buffer. All measurements were performed at least three times to determine the optimal experimental conditions with respect to signal-to-noise ratio. In all cases, experiments were consistent and reproducible. ITC data analysis was performed using the Origin 7.0 software supplied by the manufacturer of the ITC. All data were analyzed with “one binding site model” and the “sequential binding site model” implemented in this software package.

CaM (calmodulin) [6] = target: T1, CaM (calmodulin); test: 15N-T1rho relaxation of CaM (oligomeric state); design: species or system Xenopus laevis (identical to mammalian); conditions: CaM:V5p2 1:1.5 complex
Protocol: as §2
At CaM:V5p2 1:0.75 molar ratio, a significant number of the CaM peaks are doubled and for some peaks substantial line broadening is observed. […] Using the envelope of the well-dispersed, upfield-shifted amide resonances, we obtained T1rho values of ~100 ms for free Ca^2+/CaM which decreased to ~80 ms for CaM in the 1:1.5 complex.

CaM-Sepharose = conditions: ref S. Verkaart, private communication; cited from earlier work
Description: In our previous work we studied a long version of the C-terminal TRPV5 peptide 1 (V5p1, residues 696–729 in human TRPV5).

[7] = 15N-1H-HSQC titration, CaM buffer pH 7.0
[8] = association constant, sequential binding sites model, N fixed to 2, 50 mM KCl, 10 mM CaCl2, 20 mM Tris pH 7.0, 298 K
[9] = sequential binding sites model, N fixed to 2, 298 K

Substance: GLEI PDIFRVGASRYFGKTILGGPFHVI [V5p3, TM23-loop peptide, residues 401–428 of TRPV5, L401G]
- CaM domains involved in binding (overall) (CaM (calmodulin) [1]): Residues of both CaM domains were involved in the binding process
- solubility [3]: only soluble at pH 5.0

Substance: TRPV5 587-616 (from UniProt Q9NQA5)
- Kd [4]: 310 nM

Substance: ELWRAQVVATTVMLERKLPRSL [V5p2n, V5p2 peptide featuring a C611S mutation]
- NMR exchange regime of CaM-peptide complex (CaM (calmodulin) [1]): an intermediate exchange regime is retained
- CaM NMR line broadening (CaM (calmodulin) [1]): a significant loss of signal is observed
- aggregation / precipitation [3]: Neither of these two conditions appears to alter the observed behavior

Substance: ELWRAQVVATTVMLERKLPRCL [V5p2, C-terminal peptide 2, residues 591–612 of human TRPV5]
- CaM NMR line broadening (CaM (calmodulin) [1]): many peaks are significantly broadened, some even beyond detection; also recorded: dramatic line broadening in the CaM NMR spectra
- emission maximum (CaM (calmodulin) [2]; CaM:peptide 0.75:1 molar ratio): 337 nm
- emission maximum (CaM (calmodulin) [2]; further addition of CaM (beyond 0.75:1)): 312 nm
- emission maximum without CaM (start of shift) (CaM (calmodulin) [2]; excitation 282 nm): 350 nm
- shift of emission maximum upon CaM addition (CaM (calmodulin) [2]; excitation 282 nm): blue-shift in emission maximum
- oligomeric state of CaM in complex (CaM (calmodulin) [6]; from T1rho): (predominantly) monomeric state of CaM
- 15N-T1rho of CaM (CaM (calmodulin) [6]; upfield-shifted amide resonances, H2O with 10 mM 2-mercaptoethanol): ~ 80 ms
- solubility [3]: only soluble in H2O; also recorded: limited solubility; also recorded: soluble in water
- aggregation / precipitation [3]: in any buffer other than water precipitate was formed; also recorded: tends to aggregate in aqueous buffer solutions

Substance: GSHRGWEILRQNTLGHL [V5p1s, short TRPV5 C-terminal peptide 1, residues 696–712 of human TRPV5, S696G]
- K2 (macroscopic binding constant, second event) (CaM (calmodulin) [5]; [8]): 2.9 (±1.9) × 10^4 M^−1
- K1 (macroscopic binding constant, first event) (CaM (calmodulin) [5]; [8]): 9.2 (±4.1) × 10^6 M^−1
- ΔS1 (CaM (calmodulin) [5]; [9]): −95.3 cal mol^−1 deg^−1
- ΔS2 (CaM (calmodulin) [5]; [9]): −64.1 cal mol^−1 deg^−1
- CaM residues/domain involved in first binding event (CaM (calmodulin) [1]; 1:1 CaM:peptide, CaM buffer pH 7.0): C-domain of CaM
- CaM residues/domain involved in second binding event (CaM (calmodulin) [1]; 1:2 CaM:peptide, CaM buffer pH 7.0): N-domain of CaM
- number of distinct binding events (CaM (calmodulin) [1]; 15N-1H-HSQC at CaM:peptide 1:0, 1:1, 1:2, CaM buffer pH 7.0): two binding events
- emission maximum λmax (CaM (calmodulin) [2]; W701, peptide:CaM ratio 1:2, 50 mM KCl, 10 mM CaCl2, 20 mM Tris pH 7.0, excitation 282 nm): ~ 324 nm
- shift of emission maximum upon CaM addition (CaM (calmodulin) [2]; excitation 282 nm): clear blue-shift of the emission maximum
- effect of C-terminal deletion of 17 amino acids on TRPV5 binding to CaM-Sepharose (CaM-Sepharose): did not affect TRPV5 binding to CaM-Sepharose

The next lines start with results.

- NMR exchange regime of CaM-peptide complex (CaM (calmodulin) [1]): fast exchange on the NMR timescale
- shift of emission maximum upon CaM addition (CaM (calmodulin) [2]; excitation 282 nm): blue shift upon addition of calmodulin
Substance: GQTPVKELVSFKWNKYGRPYFS [V5p4, N-terminal peptide 4, residues 310–330 of human TRPV5, C330S]
- binding process inferred from curved trajectory of resonances (CaM (calmodulin) [1]; [7]): multiple processes take place during V5p4 binding to CaM
- CaM binding affinity (words, from NMR) (CaM (calmodulin) [1]; [7]): relatively weak affinity; also recorded: weak but specific binding to CaM

- NMR exchange regime of CaM-peptide complex (CaM (calmodulin) [1]): fast exchange on the NMR timescale
Substance: VRALLTRRASVSARATGTAFRR [V5p5, N-terminal peptide 5, residues 133–154 of human TRPV5]
- CaM binding affinity (words, from NMR) (CaM (calmodulin) [1]; [7]): relatively weak affinity; also recorded: weak but specific binding to CaM

- solubility [3]: only soluble at pH 5.0
Substance: GVEVPDIFRMGVTRFFGQTILGGPFHVL [V6p3, TM23-loop peptide, residues 401–428 of TRPV6, L401G]

- K1 (CaM (calmodulin) [5]; association constant, one binding site model, N allowed to vary, 50 mM KCl, 10 mM CaCl2, 20 mM Tris pH 7.0, 298 K): 1.3 (±0.3) × 10^7 M^−1
- K2 (macroscopic binding constant, second event) (CaM (calmodulin) [5]; [8]): 5.2 (±1.5) × 10^6 M^−1
- K1 (macroscopic binding constant, first event) (CaM (calmodulin) [5]; [8]): 2.2 (±1.7) × 10^6 M^−1
- ΔS1 (CaM (calmodulin) [5]; one binding site model, N allowed to vary, 298 K): −27.7 cal mol^−1 deg^−1
- ΔS1 (CaM (calmodulin) [5]; [9]): −29.6 cal mol^−1 deg^−1
- ΔS2 (CaM (calmodulin) [5]; [9]): −33.0 cal mol^−1 deg^−1
- emission maximum upon addition of CaM (CaM (calmodulin) [2]; V6p1, W695, CaM titration up to peptide:CaM 1:2, CaM buffer pH 7.0): 324 nm
- emission maximum without CaM (start of shift) (CaM (calmodulin) [2]; excitation 282 nm): 358 nm
- shift of emission maximum upon CaM addition (CaM (calmodulin) [2]; excitation 282 nm): blue-shift in emission maximum
Substance: GSSANWERLRQGTLRRDLRGIINRGLE [V6p1, TRPV6 C-terminal peptide 1, residues 690–716 of human TRPV6, R690G]
- comparison of the affinities of the two binding events (CaM (calmodulin) [5]; K1 versus K2, sequential binding sites model): indistinguishable macroscopic binding constants; also recorded: nearly identical affinities
- CaM domains involved in binding (overall) (CaM (calmodulin) [1]): residues from both domains of CaM are involved in the first and the second binding events; also recorded: involves both domains of CaM to a similar extent
